The data set can be described thus: Solution appearance with various types and amounts of alkoxylated amines. The format is physicochemical. The note with it: 2.4 wt-% octanoic acid, 21 wt-% phosphoric acid (75%), 8.0 wt-% citric acid, remainder water. The source says:
Test compositions were made with varying amounts and types of alkoxylated amines. These were made to include 2.4 wt-% octanoic acid, 21 wt-% phosphoric acid (75%), 8.0 wt-% citric acid, varying amounts of alkoxylated amine, with the remainder water.

“iso-(2-hydroxyethyl) isodecyloxypropylamine [Alkoxylated Amine 6]”: the Solution appearance result is reported as “hazy yellow” (2.5 wt-% alkoxylated amine); “hazy yellow” (3 wt-% alkoxylated amine); “hazy” (3.5 wt-% alkoxylated amine); “milky yellow” (4 wt-% alkoxylated amine); “opaque-yellow” (4.5 wt-% alkoxylated amine); “separated” (5 wt-% alkoxylated amine).

The record behind these values is patent US7341983B2, “Antimicrobial compositions including carboxylic acids and alkoxylated amines” (Ecolab Inc., priority 2003, dated 2008).
